# Assay results taken from BigSolDB 2.1.
compound,measurement,setting,value
Cc1ccc(S(=O)[O-])cc1.[Na+],solubility (mole fraction),"in DMF, 278.15 K",0.00114
same,solubility (mole fraction),"in DMF, 283.15 K",0.00169
same,solubility (mole fraction),"in DMF, 288.15 K",0.0025
same,solubility (mole fraction),"in DMF, 293.15 K",0.00365
same,solubility (mole fraction),"in DMF, 298.15 K",0.00525
same,solubility (mole fraction),"in DMF, 303.15 K",0.00747
same,solubility (mole fraction),"in DMF, 308.15 K",0.0105
same,solubility (mole fraction),"in DMF, 313.15 K",0.0146
same,solubility (mole fraction),"in DMF, 318.15 K",0.02
same,solubility (mole fraction),"in acetone, 278.15 K",0.00039
same,solubility (mole fraction),"in acetone, 283.15 K",0.00047
same,solubility (mole fraction),"in acetone, 288.15 K",0.00057
same,solubility (mole fraction),"in acetone, 293.15 K",0.00067
same,solubility (mole fraction),"in acetone, 298.15 K",0.0008
same,solubility (mole fraction),"in acetone, 303.15 K",0.00094
same,solubility (mole fraction),"in acetone, 308.15 K",0.00111
same,solubility (mole fraction),"in acetone, 313.15 K",0.0013
same,solubility (mole fraction),"in acetone, 318.15 K",0.00151
same,solubility (mole fraction),"in acetonitrile, 278.15 K",5.8e-05
same,solubility (mole fraction),"in acetonitrile, 283.15 K",7.7e-05
same,solubility (mole fraction),"in acetonitrile, 288.15 K",9.9e-05
same,solubility (mole fraction),"in acetonitrile, 293.15 K",0.00013
same,solubility (mole fraction),"in acetonitrile, 298.15 K",0.00016
same,solubility (mole fraction),"in acetonitrile, 303.15 K",0.00021
same,solubility (mole fraction),"in acetonitrile, 308.15 K",0.00027
same,solubility (mole fraction),"in acetonitrile, 313.15 K",0.00033
same,solubility (mole fraction),"in acetonitrile, 318.15 K",0.00041
same,solubility (mole fraction),"in ethanol, 278.15 K",0.0031
same,solubility (mole fraction),"in ethanol, 283.15 K",0.00328
same,solubility (mole fraction),"in ethanol, 288.15 K",0.00337
same,solubility (mole fraction),"in ethanol, 293.15 K",0.00345
same,solubility (mole fraction),"in ethanol, 298.15 K",0.00354
same,solubility (mole fraction),"in ethanol, 303.15 K",0.00363
same,solubility (mole fraction),"in ethanol, 308.15 K",0.00373
same,solubility (mole fraction),"in ethanol, 313.15 K",0.00383
same,solubility (mole fraction),"in ethanol, 318.15 K",0.00393
same,solubility (mole fraction),"in isopropanol, 278.15 K",0.00083
same,solubility (mole fraction),"in isopropanol, 283.15 K",0.00086
same,solubility (mole fraction),"in isopropanol, 288.15 K",0.00089
same,solubility (mole fraction),"in isopropanol, 293.15 K",0.00093
same,solubility (mole fraction),"in isopropanol, 298.15 K",0.00097
same,solubility (mole fraction),"in isopropanol, 303.15 K",0.001
same,solubility (mole fraction),"in isopropanol, 308.15 K",0.00105
same,solubility (mole fraction),"in isopropanol, 313.15 K",0.00109
same,solubility (mole fraction),"in isopropanol, 318.15 K",0.00113
same,solubility (mole fraction),"in methanol, 278.15 K",0.0234
same,solubility (mole fraction),"in methanol, 283.15 K",0.0313
same,solubility (mole fraction),"in methanol, 288.15 K",0.04
same,solubility (mole fraction),"in methanol, 293.15 K",0.0511
same,solubility (mole fraction),"in methanol, 298.15 K",0.0665
same,solubility (mole fraction),"in methanol, 303.15 K",0.0851
same,solubility (mole fraction),"in methanol, 308.15 K",0.106
same,solubility (mole fraction),"in methanol, 313.15 K",0.13
same,solubility (mole fraction),"in methanol, 318.15 K",0.156
same,solubility (mole fraction),"in n-butanol, 278.15 K",0.00032
same,solubility (mole fraction),"in n-butanol, 283.15 K",0.00035
same,solubility (mole fraction),"in n-butanol, 288.15 K",0.00039
same,solubility (mole fraction),"in n-butanol, 293.15 K",0.00043
same,solubility (mole fraction),"in n-butanol, 298.15 K",0.00047
same,solubility (mole fraction),"in n-butanol, 303.15 K",0.00052
same,solubility (mole fraction),"in n-butanol, 308.15 K",0.00057
same,solubility (mole fraction),"in n-butanol, 313.15 K",0.00063
same,solubility (mole fraction),"in n-butanol, 318.15 K",0.00069
same,solubility (mole fraction),"in n-propanol, 278.15 K",0.00301
same,solubility (mole fraction),"in n-propanol, 283.15 K",0.00311
same,solubility (mole fraction),"in n-propanol, 288.15 K",0.00321
same,solubility (mole fraction),"in n-propanol, 293.15 K",0.00331
same,solubility (mole fraction),"in n-propanol, 298.15 K",0.00347
same,solubility (mole fraction),"in n-propanol, 303.15 K",0.00364
same,solubility (mole fraction),"in n-propanol, 308.15 K",0.00381
same,solubility (mole fraction),"in n-propanol, 313.15 K",0.00401
same,solubility (mole fraction),"in n-propanol, 318.15 K",0.00421
same,solubility (mole fraction),"in water, 278.15 K",0.0172
same,solubility (mole fraction),"in water, 283.15 K",0.0201
same,solubility (mole fraction),"in water, 288.15 K",0.0234
same,solubility (mole fraction),"in water, 293.15 K",0.0272
same,solubility (mole fraction),"in water, 298.15 K",0.0314
same,solubility (mole fraction),"in water, 303.15 K",0.0358
same,solubility (mole fraction),"in water, 308.15 K",0.0404
same,solubility (mole fraction),"in water, 313.15 K",0.0453
same,solubility (mole fraction),"in water, 318.15 K",0.0514
